# Measurements: ChEMBL document CHEMBL4007440, “Development of the First Generation of Disulfide-Based Subtype-Selective and Potent Covalent Pyruvate Dehydrogenase Kinase 1 (PDK1) Inhibitors” (J Med Chem, 2017)
# The source made the active and inactive calls. The calls are words filed in the database; no cut-off is given here.
# Columns and labels:
# [1] = target: T1, [Pyruvate dehydrogenase (acetyl-transferring)] kinase isozyme 1, mitochondrial (Homo sapiens, UniProt Q15118); assay: Ratio of Kinact to Ki for full length His6-tagged PDK1 (unknown origin) expressed in Escherichia coli
# [2] = target: T1, [Pyruvate dehydrogenase (acetyl-transferring)] kinase isozyme 1, mitochondrial; assay: Inhibition of full length His6-tagged PDK1 (unknown origin) expressed in Escherichia coli using full length His6-tagged PDHA1 as substrate after 30 mins by ELISA
# [3] = target: T1, [Pyruvate dehydrogenase (acetyl-transferring)] kinase isozyme 1, mitochondrial; assay: Inhibition of full length His6-tagged PDK1 (unknown origin) expressed in Escherichia coli assessed as inactivation rate using full length His6-tagged PDHA1 as substrate up to 45 mins by ELISA
# [4] = target: T1, [Pyruvate dehydrogenase (acetyl-transferring)] kinase isozyme 1, mitochondrial; assay: Inhibition of PDK1 in human A549 cells assessed as reduction in phosphorylation of PDHE1 at S293 residue at 10 uM after 24 hrs by chemiluminescence/femtochemiluminescence method; format: cell-based
# [5] = target: T1, [Pyruvate dehydrogenase (acetyl-transferring)] kinase isozyme 1, mitochondrial; assay: Inhibition of PDK1 in human A549 cells assessed as reduction in phosphorylation of PDHE1 at S232 residue at 1 uM after 24 hrs by chemiluminescence/femtochemiluminescence method; format: cell-based
# [6] = target: T1, [Pyruvate dehydrogenase (acetyl-transferring)] kinase isozyme 1, mitochondrial; assay: Inhibition of full length His6-tagged PDK1 (unknown origin) expressed in Escherichia coli using full length His6-tagged PDHA1 as substrate in presence of GSH after 30 mins by ELISA
# [7] = test system: L02; assay: Antiproliferative activity against human LO2 cells after 72 hrs by CCK8 assay; format: cell-based; settings: L02, 72 h
# [8] = target: T1, [Pyruvate dehydrogenase (acetyl-transferring)] kinase isozyme 1, mitochondrial; assay: Inhibition of PDK1 in human A549 cells assessed as increase in reactive oxygen species after 24 hrs by dihydroethidium staining based FACS analysis; format: cell-based
# [9] = target: T1, [Pyruvate dehydrogenase (acetyl-transferring)] kinase isozyme 1, mitochondrial; assay: Inhibition of PDK1 in human A549 cells assessed as reduction in phosphorylation of PDHE1 at S293 residue at 1 uM after 24 hrs by chemiluminescence/femtochemiluminescence method; format: cell-based
# [10] = test system: A549; assay: Antitumor activity against human A549 cells xenografted in BALB/c nude mouse assessed as tumor growth inhibition at 80 mg/kg, ip for 21 days measured on day 21 post dose relative to control; format: functional; settings: 504 h, read-out: TGI
# [11] = target: [Pyruvate dehydrogenase (acetyl-transferring)] kinase isozyme 2, mitochondrial (Homo sapiens, UniProt Q15119); assay: Inhibition of PDK2 (unknown origin) using full length His6-tagged PDHA1 as substrate after 30 mins by ELISA
# [12] = test system: A549; assay: cells; settings: Homo sapiens, A549, 72 h
# Description: Antiproliferative activity against human A549 cells after 72 hrs by CCK8 assay
# [13] = target: T1, [Pyruvate dehydrogenase (acetyl-transferring)] kinase isozyme 1, mitochondrial; assay: Inhibition of PDK1 in human A549 cells assessed as reduction in phosphorylation of PDHE1 at S232 residue after 24 hrs by chemiluminescence/femtochemiluminescence method; format: cell-based
# [14] = target: T1, [Pyruvate dehydrogenase (acetyl-transferring)] kinase isozyme 1, mitochondrial; assay: Inhibition of PDK1 in human A549 cells assessed as reduction in extracellular acidification rate after 24 hrs by fluorescent biosensor based assay; format: cell-based
# [15] = target: T1, [Pyruvate dehydrogenase (acetyl-transferring)] kinase isozyme 1, mitochondrial; assay: Inhibition of PDK1 in human A549 cells assessed as reduction in phosphorylation of PDHE1 at S232 residue at 10 uM after 24 hrs by chemiluminescence/femtochemiluminescence method; format: cell-based
# [16] = target: T1, [Pyruvate dehydrogenase (acetyl-transferring)] kinase isozyme 1, mitochondrial; assay: Inhibition of PDK1 in human A549 cells assessed as reduction in phosphorylation of PDHE1 at S293 residue after 24 hrs by chemiluminescence/femtochemiluminescence method; format: cell-based
# [17] = Antiproliferative activity against human GM00637 cells after 72 hrs by CCK8 assay; format: cell-based; settings: GM00637, 72 h
# [18] = target: [Pyruvate dehydrogenase (acetyl-transferring)] kinase isozyme 3, mitochondrial (Homo sapiens, UniProt Q15120); assay: Inhibition of PDK3 (unknown origin) using full length His6-tagged PDHA1 as substrate after 30 mins by ELISA
# [19] = target: [Pyruvate dehydrogenase (acetyl-transferring)] kinase isozyme 4, mitochondrial (Homo sapiens, UniProt Q16654); assay: Inhibition of PDK4 (unknown origin) at 10 uM using full length His6-tagged PDHA1 as substrate after 30 mins by ELISA
# [20] = test system: A549; assay: Antitumor activity against human A549 cells xenografted in BALB/c nude mouse assessed as tumor growth inhibition at 40 mg/kg, ip for 21 days measured on day 21 post dose relative to control; format: functional; settings: 504 h, read-out: TGI
# [21] = Antiproliferative activity against human Kelly cells after 72 hrs by CCK8 assay
# [22] = target: T1, [Pyruvate dehydrogenase (acetyl-transferring)] kinase isozyme 1, mitochondrial; assay: Inhibition of full length His6-tagged PDK1 (unknown origin) expressed in Escherichia coli up to 10 uM using full length His6-tagged PDHA1 as substrate after 30 mins by ELISA
# [23] = test system: Mus musculus; assay: Toxicity in BALB/c nude mouse assessed as body weight loss at 40 to 80 mg/kg, ip for 21 days; format: organism-based; settings: in vivo, 504 h
# [24] = test system: A549; assay: Antitumor activity against human A549 cells xenografted in BALB/c nude mouse assessed as reduction in tumor weight at 40 to 80 mg/kg, ip for 21 days measured on day 21 post dose; format: functional, organism-based
# T1 sequence (Q15118 whole entry): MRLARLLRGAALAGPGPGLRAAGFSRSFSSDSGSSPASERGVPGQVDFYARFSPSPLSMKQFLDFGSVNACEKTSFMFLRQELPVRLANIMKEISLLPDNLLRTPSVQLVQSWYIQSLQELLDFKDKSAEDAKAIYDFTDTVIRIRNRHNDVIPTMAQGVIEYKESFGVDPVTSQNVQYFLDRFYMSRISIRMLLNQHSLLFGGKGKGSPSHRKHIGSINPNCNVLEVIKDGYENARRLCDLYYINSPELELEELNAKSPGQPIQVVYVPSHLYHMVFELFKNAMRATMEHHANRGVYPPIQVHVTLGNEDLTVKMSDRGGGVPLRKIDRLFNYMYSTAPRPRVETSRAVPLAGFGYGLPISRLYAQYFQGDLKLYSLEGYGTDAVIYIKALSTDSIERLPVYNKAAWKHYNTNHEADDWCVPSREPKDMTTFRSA
# [Pyruvate dehydrogenase (acetyl-transferring)] kinase isozyme 3, mitochondrial, sequence (Q15120 whole entry): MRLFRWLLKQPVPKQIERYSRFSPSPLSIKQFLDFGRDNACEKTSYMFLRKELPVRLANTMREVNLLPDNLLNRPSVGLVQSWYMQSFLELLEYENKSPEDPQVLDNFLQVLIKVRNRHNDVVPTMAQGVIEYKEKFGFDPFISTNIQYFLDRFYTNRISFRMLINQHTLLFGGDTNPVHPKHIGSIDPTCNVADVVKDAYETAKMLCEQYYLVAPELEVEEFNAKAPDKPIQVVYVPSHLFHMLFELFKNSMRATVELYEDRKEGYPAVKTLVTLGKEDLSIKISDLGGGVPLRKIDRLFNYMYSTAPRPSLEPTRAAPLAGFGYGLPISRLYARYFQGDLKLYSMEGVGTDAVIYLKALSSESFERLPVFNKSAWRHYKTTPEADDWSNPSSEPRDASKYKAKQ
# [Pyruvate dehydrogenase (acetyl-transferring)] kinase isozyme 4, mitochondrial, sequence (Q16654 whole entry, looked up): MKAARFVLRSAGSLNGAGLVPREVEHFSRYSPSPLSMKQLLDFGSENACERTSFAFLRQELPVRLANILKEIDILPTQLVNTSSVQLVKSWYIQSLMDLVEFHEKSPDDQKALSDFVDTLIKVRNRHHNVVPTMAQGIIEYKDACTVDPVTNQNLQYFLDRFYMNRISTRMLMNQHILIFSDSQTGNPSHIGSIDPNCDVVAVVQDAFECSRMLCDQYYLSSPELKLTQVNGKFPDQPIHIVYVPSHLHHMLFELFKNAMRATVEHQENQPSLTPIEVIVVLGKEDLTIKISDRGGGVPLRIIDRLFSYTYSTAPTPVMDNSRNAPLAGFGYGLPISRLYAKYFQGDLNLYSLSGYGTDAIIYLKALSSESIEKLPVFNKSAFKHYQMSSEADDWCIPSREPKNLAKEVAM
smiles,measurement,setting,value
S=C(SSC(=S)N1CCOC(COc2cccc3ccccc23)C1)N1CCOC(COc2cccc3ccccc23)C1 (configuration not stated),Ratio,[1],0.03 ×10³ /M/s
same,IC50,[2],3870 nM
same,Ki,[2],22600 nM
same,Kinact,[3],6.9 ×10⁻⁴ /s
S=C(SSC(=S)N1CCO[C@H]2CCCC[C@@H]21)N1CCO[C@H]2CCCC[C@@H]21,inhibition,[4],Active
same,IC50,[2],289 nM
COC[C@@H]1COCCN1C(=S)SSC(=S)N1CCOC[C@H]1COC,inhibition,[5],Active
same,inhibition,[6],inactive
same,IC50,[7],> 10000 nM
same,inhibition,[8],Dose-dependent effect
same,inhibition,[4],Active
same,inhibition,[9],Active
same,inhibition in vivo at 80 mg/kg,[10],20%
same,Ki,[11],702 nM
same,IC50,[12],957 nM
same,inhibition,[13],Dose-dependent effect
same,inhibition,[14],Dose-dependent effect
same,inhibition,[15],Active
same,inhibition,[16],Dose-dependent effect
same,IC50,[17],> 10000 nM
same,Ki,[18],2990 nM
same,inhibition,[19],inactive
same,inhibition in vivo at 40 mg/kg,[20],11%
same,IC50,[21],1430 nM
same,IC50,[2],24 nM
same,Ki,[2],110 nM
OCC1CN(C(=S)SSC(=S)N2CCOC(CO)C2)CCO1 (configuration not stated),inhibition,[5],inactive
same,inhibition,[4],Active
same,inhibition,[9],inactive
same,inhibition,[15],Active
same,IC50,[2],702 nM
c1ccc2sc(SSc3nc4ccccc4s3)nc2c1 [BENZOTHIAZYL DISULFIDE],IC50,[2],379 nM
OC[C@@H]1COCCN1C(=S)SSC(=S)N1CCOC[C@H]1CO,Ratio,[1],0.54 ×10³ /M/s
same,IC50,[2],2440 nM
same,Ki,[2],4030 nM
same,Kinact,[3],3.24 ×10⁻⁴ /s
CCOCC1CN(C(=S)SSC(=S)N2CCOC(COCC)C2)CCO1 (configuration not stated),IC50,[2],101 nM
Sc1nc2ccccc2s1,inhibition,[22],inactive
S=C(SSC(=S)N1CCOCC1)N1CCOCC1,inhibition,[6],inactive
same,IC50,[7],> 10000 nM
same,inhibition,[8],Dose-dependent effect
same,inhibition in vivo at 80 mg/kg,[10],50.4%
same,Ki,[11],176 nM
same,IC50,[12],480 nM
same,inhibition,[13],Dose-dependent effect
same,inhibition,[14],Dose-dependent effect
same,inhibition,[16],Dose-dependent effect
same,IC50,[17],> 10000 nM
same,Activity,[23],Non-Toxic
same,Activity,[24],Active
same,Ki,[18],2850 nM
same,inhibition,[19],inactive
same,inhibition in vivo at 40 mg/kg,[20],27.7%
same,IC50,[21],289 nM
same,IC50,[2],49 nM
same,Ki,[2],462 nM
COCC1CN(C(=S)SSC(=S)N2CCCOC(COC)C2)CCCO1 (configuration not stated),IC50,[2],350 nM
CCOC(=O)C1CCc2nc(SSc3nc4c(s3)CC(C(=O)OCC)CC4)sc2C1 (configuration not stated),IC50,[2],109 nM
C1Cc2nc(SSc3nc4c(s3)CCC4)sc2C1,IC50,[2],139 nM
C1Cc2nc(SSc3nc4c(s3)COCC4)sc2CO1,IC50,[2],169 nM
CCCCCCCCCCOCC1CN(C(=S)SSC(=S)N2CCCOC(COCCCCCCCCCC)C2)CCCO1 (configuration not stated),IC50,[2],> 10000 nM
CCCCOCC1CN(C(=S)SSC(=S)N2CCCOC(COCCCC)C2)CCCO1 (configuration not stated),IC50,[2],588 nM
c1csc(SSc2nccs2)n1,Ratio,[1],1.53 ×10³ /M/s
same,IC50,[2],326 nM
same,Ki,[2],3730 nM
same,Kinact,[3],56.5 ×10⁻⁴ /s
CC1CN(C(=S)SSC(=S)N2CCOC(C)C2)CCO1 (configuration not stated),inhibition,[5],Active
same,inhibition,[4],Active
same,inhibition,[9],Active
same,inhibition,[15],Active
same,IC50,[2],96 nM
COCC1CN(C(=S)SSC(=S)N2CCOC(COC)C2)CCO1 (configuration not stated),inhibition,[5],Active
same,inhibition,[4],Active
same,inhibition,[9],Active
same,inhibition,[15],Active
same,IC50,[2],90 nM
COC(=O)C1CN(C(=S)SSC(=S)N2CCOC(C(=O)OC)C2)CCO1 (configuration not stated),inhibition,[5],Active
same,inhibition,[4],Active
same,inhibition,[9],Active
same,inhibition,[15],Active
same,IC50,[2],85 nM
Cc1ccc(OCC2CN(C(=S)SSC(=S)N3CCCOC(COc4ccc(C)cc4)C3)CCCO2)cc1 (configuration not stated),IC50,[2],> 10000 nM
CCOCC1CN(C(=S)SSC(=S)N2CCCOC(COCC)C2)CCCO1 (configuration not stated),IC50,[2],622 nM
C1CCc2nc(SSc3nc4c(s3)CCCCC4)sc2CC1,Ratio,[1],3.93 ×10³ /M/s
same,IC50,[2],39 nM
same,Ki,[2],1800 nM
same,Kinact,[3],69.9 ×10⁻⁴ /s
